From the supplement of paper PMC11451515

Tests used:
Settings in all cases: 48 h
[1] = tested on: NOMO1; experiment: cell viability relative to DMSO control; higher = less cytotoxic
Summary of the method: (§1)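 Viability was expressed as a per-plate percentage of DMSO wells, with cell-free wells as background. Leukemia cells (NOMO1 or SEM at 500 cells/well, P12-Ichikawa at 1000 cells/well) were adapted for at least four passages in each medium and seeded in 1536-well plates (5 μl). Library compounds in DMSO were pin-dosed over an 11-point threefold series from 47 μM to 0.79 nM, and CellTiter-Glo One luminescence was read after 48 h at 37°C.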

[2] = tested on: P12-Ichikawa; experiment: as above
Summary of the method: as §1

[3] = tested on: SEM cells; experiment: as above
Summary of the method: as §1

[4] = tested on: NOMO1; experiment: AUC of viability dose-response curve (% viability x log10 dose units); higher = less sensitive
Summary of the method: (§2)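 Seeding of medium-adapted leukemia cells was at 500 or 1000 cells/well in 1536-well plates, followed by 48 h at 37°C with library compounds in DMSO at 11 threefold doses from 47 μM to 0.79 nM. CellTiter-Glo One luminescence was normalised per plate to DMSO and cell-free wells and fitted as a four-parameter log-logistic function of log10 dose. Area under the curve was integrated by trapezoidal rule, with curves exceeding full viability scaled and curves failing quality control removed.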

[5] = tested on: P12-Ichikawa; experiment: as above
Summary of the method: as §2

[6] = tested on: SEM cells; experiment: as above
Summary of the method: as §2

CN(C)CC[C@H](CSc1ccccc1)Nc1ccc([S+](=O)([O-])NC(=O)c2ccc(N3CCN(Cc4ccccc4-c4ccc(Cl)cc4)CC3)cc2)cc1[N+](=O)[O-]
cell viability [%]
Settings | [1] | [2] | [3]
HPLM + 10% dialyzed FBS, 0.000781 µM | 140 | 118 | 116
HPLM + 10% dialyzed FBS, 0.00234 µM | 119 | 123 | 126
HPLM + 10% dialyzed FBS, 0.00702 µM | 125 | 120 | 111
HPLM + 10% dialyzed FBS, 0.0211 µM | 108 | 110 | 82.7
HPLM + 10% dialyzed FBS, 0.0632 µM | 127 | 115 | 64.8
HPLM + 10% dialyzed FBS, 0.19 µM | 92.5 | 97.8 | 23.7
HPLM + 10% dialyzed FBS, 0.569 µM | 96.7 | 85.4 | 10.8
HPLM + 10% dialyzed FBS, 1.71 µM | 102 | 56.7 | 8.48
HPLM + 10% dialyzed FBS, 5.12 µM | 52.7 | 14.9 | 6.85
HPLM + 10% dialyzed FBS, 15.4 µM | 50.2 | 7.53 | 6.25
HPLM + 10% dialyzed FBS, 46.1 µM | 55 | 4.59 | 3.88
RPMI 5 mM glucose + 10% FBS, 0.000781 µM | 108 | 127 | 103
RPMI 5 mM glucose + 10% FBS, 0.00234 µM | 118 | 116 | 118
RPMI 5 mM glucose + 10% FBS, 0.00702 µM | 109 | 116 | 110
RPMI 5 mM glucose + 10% FBS, 0.0211 µM | 107 | 115 | 102
RPMI 5 mM glucose + 10% FBS, 0.0632 µM | 99.5 | 120 | 73.8
RPMI 5 mM glucose + 10% FBS, 0.19 µM | 98.8 | 115 | 27.7
RPMI 5 mM glucose + 10% FBS, 0.569 µM | 89.5 | 108 | 11.1
RPMI 5 mM glucose + 10% FBS, 1.71 µM | 80.7 | 79.9 | 6.52
RPMI 5 mM glucose + 10% FBS, 5.12 µM | 50.8 | 24.2 | 4.95
RPMI 5 mM glucose + 10% FBS, 15.4 µM | 49.6 | 12.5 | 3.98
RPMI 5 mM glucose + 10% FBS, 46.1 µM | 60.6 | 4.92 | 2.62
RPMI 5 mM glucose + 10% dialyzed FBS, 0.000781 µM | 115 | 124 | 128
RPMI 5 mM glucose + 10% dialyzed FBS, 0.00234 µM | 123 | 128 | 91.3
RPMI 5 mM glucose + 10% dialyzed FBS, 0.00702 µM | 102 | 124 | 99.7
RPMI 5 mM glucose + 10% dialyzed FBS, 0.0211 µM | 114 | 124 | 81.7
RPMI 5 mM glucose + 10% dialyzed FBS, 0.0632 µM | 98.3 | 119 | 57.4
RPMI 5 mM glucose + 10% dialyzed FBS, 0.19 µM | 85.3 | 117 | 19.7
RPMI 5 mM glucose + 10% dialyzed FBS, 0.569 µM | 62.7 | 95.5 | 11.3
RPMI 5 mM glucose + 10% dialyzed FBS, 1.71 µM | 46.1 | 76.1 | 8.96
RPMI 5 mM glucose + 10% dialyzed FBS, 5.12 µM | 33.9 | 15.8 | 5.67
RPMI 5 mM glucose + 10% dialyzed FBS, 15.4 µM | 30.6 | 8.77 | 4.98
RPMI 5 mM glucose + 10% dialyzed FBS, 46.1 µM | 42.5 | 4.13 | 3.36

AUC of viability dose-response curve
Settings | [4] | [5] | [6]
HPLM + 10% dialyzed FBS | 363 | 321 | 195
RPMI 5 mM glucose + 10% FBS | 388 | 354 | 218
RPMI 5 mM glucose + 10% dialyzed FBS | 324 | 338 | 191

CN(C)/[N+]([O-])=N/Oc1cc(ON[N+](=O)N2CCN(C(=O)c3cc(Cc4n[nH]c(=O)c5ccccc45)ccc3F)CC2)c([N+](=O)[O-])cc1[N+](=O)[O-]
cell viability [%]
Settings | [1] | [2] | [3]
HPLM + 10% dialyzed FBS, 0.000781 µM | 101 | 102 | 94
HPLM + 10% dialyzed FBS, 0.00234 µM | 94.9 | 105 | 97.2
HPLM + 10% dialyzed FBS, 0.00702 µM | 100 | 111 | 103
HPLM + 10% dialyzed FBS, 0.0211 µM | 100 | 112 | 97.7
HPLM + 10% dialyzed FBS, 0.0632 µM | 115 | 120 | 100
HPLM + 10% dialyzed FBS, 0.19 µM | 119 | 109 | 58.3
HPLM + 10% dialyzed FBS, 0.569 µM | 109 | 106 | 101
HPLM + 10% dialyzed FBS, 1.71 µM | 104 | 106 | 116
HPLM + 10% dialyzed FBS, 5.12 µM | 102 | 105 | 109
HPLM + 10% dialyzed FBS, 15.4 µM | 126 | 106 | 110
HPLM + 10% dialyzed FBS, 46.1 µM | 117 | 99.4 | 105
RPMI 5 mM glucose + 10% FBS, 0.000781 µM | 99.1 | 106 | 99
RPMI 5 mM glucose + 10% FBS, 0.00234 µM | 97.4 | 117 | 101
RPMI 5 mM glucose + 10% FBS, 0.00702 µM | 103 | 116 | 93.1
RPMI 5 mM glucose + 10% FBS, 0.0211 µM | 114 | 120 | 93.5
RPMI 5 mM glucose + 10% FBS, 0.0632 µM | 99.4 | 117 | 100
RPMI 5 mM glucose + 10% FBS, 0.19 µM | 102 | 121 | 55.9
RPMI 5 mM glucose + 10% FBS, 0.569 µM | 113 | 120 | 98.2
RPMI 5 mM glucose + 10% FBS, 1.71 µM | 122 | 130 | 109
RPMI 5 mM glucose + 10% FBS, 5.12 µM | 119 | 108 | 111
RPMI 5 mM glucose + 10% FBS, 15.4 µM | 101 | 114 | 113
RPMI 5 mM glucose + 10% FBS, 46.1 µM | 106 | 119 | 103
RPMI 5 mM glucose + 10% dialyzed FBS, 0.000781 µM | 93.9 | 97 | 89.9
RPMI 5 mM glucose + 10% dialyzed FBS, 0.00234 µM | 112 | 96.2 | 79.2
RPMI 5 mM glucose + 10% dialyzed FBS, 0.00702 µM | 101 | 115 | 112
RPMI 5 mM glucose + 10% dialyzed FBS, 0.0211 µM | 107 | 101 | 103
RPMI 5 mM glucose + 10% dialyzed FBS, 0.0632 µM | 118 | 109 | 109
RPMI 5 mM glucose + 10% dialyzed FBS, 0.19 µM | 114 | 108 | 40.1
RPMI 5 mM glucose + 10% dialyzed FBS, 0.569 µM | 103 | 120 | 137
RPMI 5 mM glucose + 10% dialyzed FBS, 1.71 µM | 109 | 111 | 122
RPMI 5 mM glucose + 10% dialyzed FBS, 5.12 µM | 123 | 100 | 106
RPMI 5 mM glucose + 10% dialyzed FBS, 15.4 µM | 115 | 106 | 100
RPMI 5 mM glucose + 10% dialyzed FBS, 46.1 µM | 120 | 103 | 91.8

AUC of viability dose-response curve
Settings | [4] | [5] | [6]
HPLM + 10% dialyzed FBS | 438 | 467 | 444
RPMI 5 mM glucose + 10% FBS | 460 | 469 | 446
RPMI 5 mM glucose + 10% dialyzed FBS | 441 | 466 | 448
